# Data as given in BigSolDB 2.1.
smiles,measurement,setting,value
Cc1cccc(Nc2ccccc2C(=O)O)c1C,solubility (mole fraction),"in DMAc, 298 K",0.122
same,solubility (mole fraction),"in DMAc, 303 K",0.138
same,solubility (mole fraction),"in DMAc, 308 K",0.153
same,solubility (mole fraction),"in DMAc, 313 K",0.165
same,solubility (mole fraction),"in DMAc, 318 K",0.175
same,solubility (mole fraction),"in DMAc, 323 K",0.19
same,solubility (mole fraction),"in DMF, 298 K",0.0171
same,solubility (mole fraction),"in DMF, 303 K",0.0208
same,solubility (mole fraction),"in DMF, 308 K",0.0275
same,solubility (mole fraction),"in DMF, 313 K",0.0327
same,solubility (mole fraction),"in DMF, 318 K",0.0391
same,solubility (mole fraction),"in DMF, 323 K",0.0551
same,solubility (mole fraction),"in acetone, 298 K",0.0054
same,solubility (mole fraction),"in acetone, 303 K",0.0055
same,solubility (mole fraction),"in acetone, 308 K",0.0065
same,solubility (mole fraction),"in acetone, 313 K",0.007
same,solubility (mole fraction),"in acetone, 318 K",0.0084
same,solubility (mole fraction),"in acetone, 323 K",0.0098
same,solubility (mole fraction),"in cyclohexane, 298 K",0.0009
same,solubility (mole fraction),"in cyclohexane, 303 K",0.0009
same,solubility (mole fraction),"in cyclohexane, 308 K",0.0011
same,solubility (mole fraction),"in cyclohexane, 313 K",0.0012
same,solubility (mole fraction),"in cyclohexane, 318 K",0.0014
same,solubility (mole fraction),"in cyclohexane, 323 K",0.0016
same,solubility (mole fraction),"in ethanol, 298 K",0.0019
same,solubility (mole fraction),"in ethanol, 303 K",0.002
same,solubility (mole fraction),"in ethanol, 308 K",0.0024
same,solubility (mole fraction),"in ethanol, 313 K",0.0032
same,solubility (mole fraction),"in ethanol, 318 K",0.0037
same,solubility (mole fraction),"in ethanol, 323 K",0.0042
same,solubility (mole fraction),"in ethyl acetate, 298 K",0.0039
same,solubility (mole fraction),"in ethyl acetate, 303 K",0.0045
same,solubility (mole fraction),"in ethyl acetate, 308 K",0.0055
same,solubility (mole fraction),"in ethyl acetate, 313 K",0.0071
same,solubility (mole fraction),"in ethyl acetate, 318 K",0.0079
same,solubility (mole fraction),"in ethyl acetate, 323 K",0.0096
same,solubility (mole fraction),"in isopropanol, 298 K",0.002
same,solubility (mole fraction),"in isopropanol, 303 K",0.0024
same,solubility (mole fraction),"in isopropanol, 308 K",0.0026
same,solubility (mole fraction),"in isopropanol, 313 K",0.0033
same,solubility (mole fraction),"in isopropanol, 318 K",0.004
same,solubility (mole fraction),"in isopropanol, 323 K",0.0053
same,solubility (mole fraction),"in n-heptane, 298 K",0.0011
same,solubility (mole fraction),"in n-heptane, 303 K",0.0013
same,solubility (mole fraction),"in n-heptane, 308 K",0.0015
same,solubility (mole fraction),"in n-heptane, 313 K",0.0017
same,solubility (mole fraction),"in n-heptane, 318 K",0.0018
same,solubility (mole fraction),"in n-heptane, 323 K",0.0022
same,solubility (mole fraction),"in n-hexane, 298 K",0.0013
same,solubility (mole fraction),"in n-hexane, 303 K",0.0014
same,solubility (mole fraction),"in n-hexane, 308 K",0.0016
same,solubility (mole fraction),"in n-hexane, 313 K",0.0018
same,solubility (mole fraction),"in n-hexane, 318 K",0.002
same,solubility (mole fraction),"in n-hexane, 323 K",0.0024
same,solubility (mole fraction),"in water, 313 K",1e-05
same,solubility (mole fraction),"in water, 318 K",3e-05
same,solubility (mole fraction),"in water, 323 K",5e-05
